Reference: US11564924B2, “Pharmaceutical composition formed by combining pyridoxamine compound and thiamine compound” (RENASCIENCE CO., LTD., priority 2014, dated 2023)

How the values were obtained:
pentosidine = experiment: Plasma pentosidine concentration in schizophrenia patients (HPLC); format: in vivo, human; details: Day 169 vs Day 1; nine subjects
Description: Drug administration was initiated for nine subjects from whom consent was obtained. The observation period was defined as the period from the day on which consent was obtained (Day −14) to the day 2 weeks after the day of consent (Day 0), and the initial day of drug administration was defined as Day 1. The data of Day 1 is data immediately before the start of administration of the pyridoxamine compound. The drug administration period was defined as the 24-week period from the start of drug administration (Day 1 to Day 169). […]
In the morning […], on the initial day of drug administration (Day 1), and on Day 15, Day 29, Day 85, and Day 169 after the start of drug administration, blood was drawn from the nine subjects above before administration of the drug. […] The plasma pentosidine concentration was measured according to the method described below. […]
The samples prepared as described above were diluted 10-fold with Milli-Q water (diluted samples). […] The diluted samples and the diluted pentosidine standard were subjected to HPLC (HPLC apparatus produced by Shimadzu Science) under the following conditions, and analysis of pentosidine was performed with a fluorescence measuring device (SLC-10Avp; equipped with UV and fluorescence detectors). […]

[1] = tested on: vitamin B1 in human whole blood; experiment: In vitro effect on vitamin B1 concentration in human whole blood; details: human whole blood, 5, 50, 500 μg/mL, 37° C.
Description: In addition, as described in Experiment Example 1 and Experiment Example 2, administration of a pyridoxamine compound increases not only the serum pyridoxamine concentration, but also the serum pyridoxal concentration, and thus, pyridoxamine and pyridoxal were both used as test substances for the investigation.
Blood was collected from a human using EDTA⋅2K as an anticoagulant. In addition, pyridoxamine dihydrochloride (Sigma-Aldrich Japan) was used as pyridoxamine, and pyridoxal hydrochloride (Nacalai Tesque, Inc.) was used as pyridoxal. They were dissolved at 0.5, 5, and 50 mg/mL in physiological saline to prepare test solutions. 10 μL of each test solution was individually added per mL of the whole blood collected above (test samples). The final concentrations of each test substance in the test samples were 5, 50, 500 μg/mL. Further, a vehicle was prepared by adding 10 μl of physiological saline to 1 ml of the whole blood. The vehicle and the test samples were incubated at 37° C. for 1 hour or 16 hours and then immediately frozen. Measurement of the vitamin B1 concentrations in the whole blood before the start of the incubation to which neither the physiological saline nor any test solution was added (baseline: indicated by “BL” in FIG. 4), and in the vehicle and in each test sample after the incubation, was outsourced to SRL Inc., and the measurement was performed using LC/MS/MS.

In the case of `Cc1ncc(CO)c(CN)c1O.Cl.Cl` [pyridoxamine dihydrochloride], the “blood pentosidine concentration at the end of administration versus Day 1” value (pentosidine) is reported as “lower than that on Day 1 in at least seven subjects”, the “change in whole blood vitamin B1 concentration” value ([1]; 1 hour incubation) is reported as “no changes” and the “change in whole blood vitamin B1 concentration” value ([1]; 16 hours incubation) is reported as “decrease was similar to that in the vehicle”.
